# Source: patent US5721103A, “Trienoic retinoid compounds and methods” (Ligand Pharmaceuticals Incorporated, priority 1995, dated 1998)
# Key:
# Format in all cases: cell-based
# RARs and RXRs = test: Co-transfection assay, RAR and RXR receptors taken together; details: for activity on the RARs or RXRs (in words): any of the RARs or RXRs; for RAR activity (in words): RARs
# Protocol: Utilizing the "cis-trans" or "co-transfection" assay described by Evans et al., Science, 240:889-95 (May 13, 1988), the disclosure of which is herein incorporated by reference, the retinoid compounds of the present invention were tested and found to have strong, specific activity as either selective RAR agonists, selective RXR agonists, or as pan-agonist activators of both RAR and RXR receptors. This assay is described in further detail in U.S. Pat. Nos. 4,981,784 and 5,071,773, the disclosures of which are incorporated herein by reference.
# In the co-transfection assay, a cloned cDNA for an IR (e.g., human RARα, RARβ, RXRγ) under the control of a constitutive promoter (e.g., the SV 40 promoter) is introduced by transfection (a procedure to induce cells to take up foreign genes) into a background cell substantially devoid of endogenous IRs. This introduced gene directs the recipient cells to make the IR protein of interest. A second gene is also introduced (co-transfected) into the same cells in conjunction with the IR gene. This second gene, comprising the cDNA for a reporter protein, such as firefly luciferase (LUC), is controlled by an appropriate hormone responsive promoter containing a hormone response element (HRE). This reporter plasmid functions as a reporter for the transcription-modulating activity of the target IR. Thus, the reporter acts as a surrogate for the products (mRNA then protein) normally expressed by a gene under control of the target receptor and its native hormone.
# The co-transfection assay can detect small molecule agonists or antagonists of target IRs. Exposing the transfected cells to an agonist ligand compound increases reporter activity in the transfected cells. This activity can be conveniently measured, e.g., by increasing luciferase production, which reflects compound-dependent, IR-mediated increases in reporter transcription. […] . Increasing concentrations of a suspected antagonist will decrease the reporter signal (e.g., luciferase production). The co-transfection assay is therefore useful to detect both agonists and antagonists of specific IRs. Furthermore, it determines not only whether a compound interacts with a particular IR, but whether this interaction mimics (agonizes) or blocks (antagonizes) the effects of the native regulatory molecules on target gene expression, as well as the specificity and strength of this interaction.
# To determine RAR and/or RXR agonist activity of the compounds of the present invention, the CV-1 cells were transiently transfected by calcium phosphate coprecipitation according to the procedure of Berger et al., 41 J. Steroid Biochem. Mol. Biol., 733 (1992) with the following receptor expressing plasmids: pRShRARα: Giguere et at., 330 Nature, 624 (1987); pRShRARβ and pRShRARγ, Ishikawa et al., 4 Mol. Endocrin., 837 (1990); pRShRXRα, Mangelsdorf et at., 345 Nature, 224 (1990); and pRSmRXRβ and pRSmRXRγ, Mangelsdorf et al., 6 Genes & Devel., 329 (1992), the disclosures of which are herein incorporated by reference. Each of these receptor expressing plasmids was co-transfected at a concentration of 5 ng/well, along with a basal reporter plasmid at 100 ng/well, the internal control plasmid pRS-β-Gal at 50 ng/well and filler DNA, pGEM at 45 ng/well.
# RXRα = target: T1, RXRα (Homo sapiens, UniProt P19793); test: Co-transfection assay, RXRα agonist activity; details: CV-1 cells, 40 hours, read-out: Potency (EC50) RXRα
# T1 construct: expressed in transfected cells; host or cells: CV-1 (African green monkey kidney)
# T1 sequence (P19793 1-462): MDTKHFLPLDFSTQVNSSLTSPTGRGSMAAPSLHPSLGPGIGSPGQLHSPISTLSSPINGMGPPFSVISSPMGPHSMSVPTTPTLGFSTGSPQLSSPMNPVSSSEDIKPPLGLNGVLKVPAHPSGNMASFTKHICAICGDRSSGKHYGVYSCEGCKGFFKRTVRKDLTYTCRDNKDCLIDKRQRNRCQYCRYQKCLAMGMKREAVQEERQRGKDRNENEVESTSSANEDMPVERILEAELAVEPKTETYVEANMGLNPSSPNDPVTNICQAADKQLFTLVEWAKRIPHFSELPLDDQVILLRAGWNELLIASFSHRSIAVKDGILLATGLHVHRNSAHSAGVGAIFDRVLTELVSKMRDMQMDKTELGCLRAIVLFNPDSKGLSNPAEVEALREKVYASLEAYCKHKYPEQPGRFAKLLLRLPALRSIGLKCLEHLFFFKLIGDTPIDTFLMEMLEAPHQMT
# RARβ = target: T2, RARβ (Homo sapiens, UniProt P10826); test: Co-transfection assay, RARβ agonist activity; details: CV-1 cells, 40 hours, read-out: Potency (EC50) RARβ
# T2 construct: expressed in transfected cells; host or cells: CV-1 (African green monkey kidney)
# T2 sequence (P10826 1-448 isoform P10826-2): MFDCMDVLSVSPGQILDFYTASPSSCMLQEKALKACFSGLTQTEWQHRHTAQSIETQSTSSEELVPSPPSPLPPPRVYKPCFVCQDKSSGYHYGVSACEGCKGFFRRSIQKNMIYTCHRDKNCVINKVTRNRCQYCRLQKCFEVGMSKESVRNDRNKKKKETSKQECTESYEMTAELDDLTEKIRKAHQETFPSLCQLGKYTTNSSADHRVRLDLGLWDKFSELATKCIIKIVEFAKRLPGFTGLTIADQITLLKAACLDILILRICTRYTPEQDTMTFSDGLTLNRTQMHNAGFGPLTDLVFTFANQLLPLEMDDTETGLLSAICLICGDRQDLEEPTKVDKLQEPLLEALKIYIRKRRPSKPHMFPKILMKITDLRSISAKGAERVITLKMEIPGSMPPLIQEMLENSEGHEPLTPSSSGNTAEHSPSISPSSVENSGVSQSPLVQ
# RXRγ = target: T3, RXRγ (Mus musculus, UniProt P28705); test: Co-transfection assay, RXRγ agonist activity; details: CV-1 cells, 40 hours, read-out: Potency (EC50) RXRγ
# T3 construct: expressed in transfected cells; host or cells: CV-1 (African green monkey kidney)
# T3 sequence (P28705 1-463): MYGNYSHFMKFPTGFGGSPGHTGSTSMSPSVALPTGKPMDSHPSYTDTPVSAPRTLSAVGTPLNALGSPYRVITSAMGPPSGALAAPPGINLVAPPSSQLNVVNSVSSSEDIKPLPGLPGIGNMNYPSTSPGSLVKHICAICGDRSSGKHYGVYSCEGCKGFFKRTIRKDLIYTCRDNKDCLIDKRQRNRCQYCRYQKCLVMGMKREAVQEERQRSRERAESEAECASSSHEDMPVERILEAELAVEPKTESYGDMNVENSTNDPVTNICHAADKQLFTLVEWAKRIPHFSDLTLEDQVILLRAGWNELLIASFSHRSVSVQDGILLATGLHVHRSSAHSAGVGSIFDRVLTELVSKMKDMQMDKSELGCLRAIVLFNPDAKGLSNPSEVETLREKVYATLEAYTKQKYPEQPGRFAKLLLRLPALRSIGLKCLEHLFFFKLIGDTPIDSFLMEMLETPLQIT
# RARγ = target: T4, RARγ (Homo sapiens, UniProt P13631); test: Co-transfection assay, RARγ agonist activity; details: CV-1 cells, 40 hours, read-out: Potency (EC50) RARγ
# T4 construct: expressed in transfected cells; host or cells: CV-1 (African green monkey kidney)
# T4 sequence (P13631 1-454): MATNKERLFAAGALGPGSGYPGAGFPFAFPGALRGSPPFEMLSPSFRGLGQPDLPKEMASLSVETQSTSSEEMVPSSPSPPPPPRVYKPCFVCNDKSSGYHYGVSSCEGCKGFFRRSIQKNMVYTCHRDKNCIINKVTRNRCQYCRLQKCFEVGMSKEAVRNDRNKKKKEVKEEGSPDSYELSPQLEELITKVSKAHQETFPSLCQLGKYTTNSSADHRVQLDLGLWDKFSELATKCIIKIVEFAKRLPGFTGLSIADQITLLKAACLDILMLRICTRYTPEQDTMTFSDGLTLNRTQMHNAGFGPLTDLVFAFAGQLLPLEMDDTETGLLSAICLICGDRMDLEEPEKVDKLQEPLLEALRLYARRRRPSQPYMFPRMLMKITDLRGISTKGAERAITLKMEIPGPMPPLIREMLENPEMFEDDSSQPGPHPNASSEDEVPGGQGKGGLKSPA
# RARα = target: T5, RARα (Homo sapiens, UniProt P10276); test: Co-transfection assay, RARα agonist activity; details: CV-1 cells, 40 hours, read-out: Potency (EC50) RARα
# T5 construct: expressed in transfected cells; host or cells: CV-1 (African green monkey kidney)
# T5 sequence (P10276 1-462): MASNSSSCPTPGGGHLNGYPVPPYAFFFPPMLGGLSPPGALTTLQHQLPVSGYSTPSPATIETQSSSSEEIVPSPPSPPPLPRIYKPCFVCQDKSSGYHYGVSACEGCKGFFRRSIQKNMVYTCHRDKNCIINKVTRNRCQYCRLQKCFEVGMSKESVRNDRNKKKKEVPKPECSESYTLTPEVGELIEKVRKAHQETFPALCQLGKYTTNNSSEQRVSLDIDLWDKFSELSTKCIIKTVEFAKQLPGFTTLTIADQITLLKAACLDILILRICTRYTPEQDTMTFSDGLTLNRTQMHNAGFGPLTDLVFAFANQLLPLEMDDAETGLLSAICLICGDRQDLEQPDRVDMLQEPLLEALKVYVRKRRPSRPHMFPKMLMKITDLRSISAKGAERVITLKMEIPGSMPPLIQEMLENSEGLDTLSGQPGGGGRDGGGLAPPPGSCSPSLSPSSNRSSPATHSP
# RXRβ = target: T6, RXRβ (Mus musculus, UniProt P28704); test: Co-transfection assay, RXRβ agonist activity; details: CV-1 cells, 40 hours, read-out: Potency (EC50) RXRβ
# T6 construct: expressed in transfected cells; host or cells: CV-1 (African green monkey kidney)
# T6 sequence (P28704 1-520): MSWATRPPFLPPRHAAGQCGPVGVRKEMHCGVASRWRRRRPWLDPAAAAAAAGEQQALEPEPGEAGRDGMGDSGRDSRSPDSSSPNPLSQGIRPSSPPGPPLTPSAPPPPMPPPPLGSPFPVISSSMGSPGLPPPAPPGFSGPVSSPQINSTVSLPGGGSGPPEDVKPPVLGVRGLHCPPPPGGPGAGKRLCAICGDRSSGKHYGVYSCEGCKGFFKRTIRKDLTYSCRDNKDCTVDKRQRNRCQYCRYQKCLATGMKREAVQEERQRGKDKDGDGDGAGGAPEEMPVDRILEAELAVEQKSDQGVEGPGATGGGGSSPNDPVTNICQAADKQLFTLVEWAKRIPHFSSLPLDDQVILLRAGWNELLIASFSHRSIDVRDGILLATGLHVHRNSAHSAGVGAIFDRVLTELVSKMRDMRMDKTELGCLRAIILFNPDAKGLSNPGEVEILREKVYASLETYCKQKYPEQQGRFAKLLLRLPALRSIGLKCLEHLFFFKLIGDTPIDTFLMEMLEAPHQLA
smiles,measurement,setting,value
"C/C(=C/C=C/C(C)=C/C(=O)O)c1cc(C(C)C)cc(C(C)C)c1 [Compound 43, (2E, 4E, 6Z)-7-(3,5-Di-isopropylphenyl)-3-methylocta-2,4,6-trienoic acid]",potency profile in comparison to 9-cis retinoic acid (in words),"RARs and RXRs; versus 9-cis, pan-agonist",superior potency profile
"COc1cc(C)c(/C=C/C=C/C=C(\C)C(=O)O)c(C)c1C [C, (2E,4E,6E)-2-methyl-7-(2,3,6-trimethyl-4-methoxyphenyl)hepta-2,4,6-trienoic acid, reference compound]",activity on the RARs or RXRs (in words),RARs and RXRs,"no, or virtually no, activity"
CCc1cc(C)c(\C(C)=C/C=C/C(C)=C/C(=O)O)cc1CC [Compound 54],EC50,RXRα,0.058 µM
same,EC50,RARβ,0.13 µM
same,EC50,RXRγ,0.078 µM
same,EC50,RARγ,0.32 µM
same,EC50,RARα,> 10 µM
same,EC50,RXRβ,0.028 µM
"CC(/C=C/C=C1\CCOc2c1cc(C(C)(C)C)cc2C(C)(C)C)=C\C(=O)O [Compound 39, (2E,4E,6E)-6-(6,8,-Di-t-butylchroman-4-ylidene)-3-methylhexa-2,4,6-trienoicacid]",RAR activity (in words),RARs and RXRs,extremely potent RAR active compounds
"CCC/C(=C/C=C/C(C)=C/C(=O)O)c1cc(C(C)(C)C)cc(C(C)(C)C)c1 [Compound 28, (2E, 4E, 6Z)-7-(3,5-Di-t-butylphenyl)-3-methyldeca-2,4,6-trienoic acid]",RXR activity (in words),RARs and RXRs; RXRs,very potent and selective RXR active compound
"COc1c(C(C)(C)C)cc(/C(C)=C/C=C/C(C)=C/C(=O)O)cc1C(C)(C)C [Compound 47, (2E, 4E, 6E) -3-Methyl-7-(3,5-di-t-butyl-4-methoxyphenyl)octa-2,4,6-trienoic acid]",RAR activity (in words),RARs and RXRs,extremely potent RAR active compounds
same,selectivity among RARs (in words),RARs and RXRs; RARβ and RARγ,selectivity on RARβ and RARγ
"COC(/C=C/C=C(\C)c1ccc(C(C)(C)C)cc1)=C/C(=O)O [D, (2E,4E,6E)-3-methoxy-7-(4-t-butylphenyl)octa-2,4,6-trienoic acid, reference compound]",activity on the RARs or RXRs (in words),RARs and RXRs,"no, or virtually no, activity"
"CC(/C=C/C=C(\C)c1cc(C(F)(F)F)cc(C(F)(F)F)c1)=C\C(=O)O [Compound 41, (2E, 4E, 6E)-7-(3,5-Di-trifluoromethylphenyl)-3-methylocta-2,4,6-trienoic acid]",RAR activity (in words),RARs and RXRs,extremely potent RAR active compounds
"COc1ccc(/C(C)=C/C=C/C(C)=C/C(=O)O)cc1 [B, (2E,4E,6E)-3-methyl-7-(4-methoxyphenyl)octa-2,4,6-trienoic acid, reference compound]",activity on the RARs or RXRs (in words),RARs and RXRs,"no, or virtually no, activity"
"COc1ccc(/C(C)=C/C=C/C(C)=C/C(=O)O)cc1OC [A, (2E,4E,6E)-3-methyl-7-(3,4-dimethoxyphenyl)octa-2,4,6-trienoic acid, reference compound]",activity on the RARs or RXRs (in words),RARs and RXRs,"no, or virtually no, activity"
